Values joined by “and” are separate entries in the source; they are usually repeats but may differ in a detail not shown here. Equal values may be shown once. Toxic doses and inconclusive results are not listed. How the source made its calls: active means survival T/C of 150% or more; inactive means T/C below 125% in these data.
Tested on: P388 leukemia ip, CD2F1 mice, survival T/C
Assay: NCI In Vivo Anticancer Drug Screen. Data for tumor model P388 Leukemia (intraperitoneal) in CD2F1 (CDF1) mice
Conditions: endpoint: median survival time, higher = longer survival
Method in brief: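 Mice carrying the transplanted tumor received test compound or vehicle. Survival was recorded in each group, and the value is the treated-group measurement divided by that of the vehicle-treated control group.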

[1] = dose: 60.0 mg/kg/injection, schedule: Q01DX005 (ip), vehicle: saline with Tween-80
[2] = dose: 120.0 mg/kg/injection, schedule: Q01DX005 (ip), vehicle: saline with Tween-80
[3] = dose: 100.0 mg/kg/injection, schedule: Q01DX009 (ip), vehicle: saline with Tween-80
[4] = dose: 200.0 mg/kg/injection, schedule: Q01DX009 (ip), vehicle: saline with Tween-80
[5] = dose: 400.0 mg/kg/injection, schedule: Q01DX009 (ip), vehicle: saline with Tween-80
[6] = dose: 25.0 mg/kg/injection, schedule: Q01DX009 (ip), vehicle: saline with Tween-80
[7] = dose: 50.0 mg/kg/injection, schedule: Q01DX009 (ip), vehicle: saline with Tween-80
[8] = dose: 100.0 mg/kg/injection, schedule: Q01DX005 (ip), vehicle: saline
[9] = dose: 200.0 mg/kg/injection, schedule: Q01DX005 (ip), vehicle: saline
[10] = dose: 50.0 mg/kg/injection, schedule: Q01DX005 (ip), vehicle: saline with Tween-80
[11] = dose: 100.0 mg/kg/injection, schedule: Q01DX005 (ip), vehicle: saline with Tween-80
[12] = dose: 200.0 mg/kg/injection, schedule: Q01DX005 (ip), vehicle: saline with Tween-80

Measured: T/C

CC(C)C1=C2C3CC(O)C(C=O)=CC(=O)C3(C)CCC2(C)CC1 (stereo not given)
inactive: dose: 6.25 mg/kg/injection, schedule: Q01DX009 (ip), vehicle: saline + alcohol 112 % of control | dose: 12.5 mg/kg/injection, schedule: Q01DX009 (ip), vehicle: saline + alcohol 110 % of control | dose: 25.0 mg/kg/injection, schedule: Q01DX009 (ip), vehicle: saline + alcohol 108 % of control

CN(C)C1CS(=O)(=O)OC2=C1COCC2 (stereo not given)
inactive: [1] 101 % of control | [2] 105 % of control

CN(C)CCCC1(c2cccc(Cl)c2)SC(C)(C)c2ccccc21 (stereo not given)
inactive: dose: 25.0 mg/kg/injection, schedule: Q01DX001 (ip), vehicle: saline 97 % of control | dose: 50.0 mg/kg/injection, schedule: Q01DX001 (ip), vehicle: saline 93 % of control

C=Cn1c([N+](=O)[O-])cnc1/C=C/c1ccc(C(=O)OCCN2CCCCC2)cc1
inactive: dose: 100.0 mg/kg/injection, schedule: Q04DX002 (ip), vehicle: saline with Tween-80 90 % of control | dose: 100.0 mg/kg/injection, schedule: Q04DX003 (ip), vehicle: Klucel (hydroxypropylcellulose) (HPC) 105 % of control | dose: 200.0 mg/kg/injection, schedule: Q04DX002 (ip), vehicle: saline with Tween-80 90 % of control | dose: 200.0 mg/kg/injection, schedule: Q04DX003 (ip), vehicle: Klucel (hydroxypropylcellulose) (HPC) 102 % of control | dose: 400.0 mg/kg/injection, schedule: Q04DX002 (ip), vehicle: saline with Tween-80 90 % of control | dose: 400.0 mg/kg/injection, schedule: Q04DX003 (ip), vehicle: Klucel (hydroxypropylcellulose) (HPC) 102 % of control

COc1ccc([N+](=O)[O-])cc1Br
inactive: [3] 100 % of control | [4] 100 % of control | [5] 100 % of control

CCOC(=O)C1=C(C(=O)c2ccc(C)cc2)C(c2cccc([N+](=O)[O-])c2)C(C(=O)c2ccc(C)cc2)=C(C(=O)OCC)N1
inactive: [1] 103 % of control | [2] 93 % of control | dose: 240.0 mg/kg/injection, schedule: Q01DX005 (ip), vehicle: saline with Tween-80 111 % of control

C/C=C(\C(=O)O)S(=O)(=O)O.[Pb]
inactive: [6] 100 % of control | [7] 90 % of control

COc1c(C)c(O)c2c(c1O)/C(=C/N=NC(N)=S)C(Cl)=N2
inactive: dose: 100.0 mg/kg/injection, schedule: Q01DX001 (ip), vehicle: saline with Tween-80 103 % of control | dose: 200.0 mg/kg/injection, schedule: Q01DX001 (ip), vehicle: saline with Tween-80 103 % of control | dose: 400.0 mg/kg/injection, schedule: Q01DX001 (ip), vehicle: saline with Tween-80 96 % of control

N#CN=C(N)N
inactive: dose: 18.8 mg/kg/injection, schedule: Q01DX005 (ip), vehicle: saline 115 % of control | dose: 37.5 mg/kg/injection, schedule: Q01DX005 (ip), vehicle: saline 112 % of control | dose: 75.0 mg/kg/injection, schedule: Q01DX005 (ip), vehicle: saline 98 % of control | [8] 96 % of control | dose: 150.0 mg/kg/injection, schedule: Q01DX005 (ip), vehicle: saline 105 % of control | [9] 102 % of control | dose: 300.0 mg/kg/injection, schedule: Q01DX005 (ip), vehicle: saline 118 % of control | dose: 400.0 mg/kg/injection, schedule: Q01DX005 (ip), vehicle: saline 99 % of control | dose: 600.0 mg/kg/injection, schedule: Q01DX005 (ip), vehicle: saline 112 % of control | dose: 800.0 mg/kg/injection, schedule: Q01DX005 (ip), vehicle: saline 101 % of control

O=C(NC(CO)C(O)c1ccc(N=Nc2cccc3ccccc23)cc1)C(Cl)Cl (stereo not given)
inactive: [3] 95 % of control | [4] 104 % of control | [5] 104 % of control

CSCCC([NH-])C(=O)O.CSCCC([NH-])C(=O)O.[Ni+2] (stereo not given)
inactive: dose: 0.79 mg/kg/injection, schedule: Q01DX009 (ip), vehicle: saline 92 % of control | dose: 1.56 mg/kg/injection, schedule: Q01DX009 (ip), vehicle: saline 96 % of control | dose: 3.12 mg/kg/injection, schedule: Q01DX009 (ip), vehicle: saline 97 % of control | dose: 12.5 mg/kg/injection, schedule: Q01DX009 (ip), vehicle: saline 94 % of control

CN(C)c1cc[n+](C=O)cc1
inactive: dose: 3.75 mg/kg/injection, schedule: Q01DX005 (ip), vehicle: saline 102 % of control | dose: 7.5 mg/kg/injection, schedule: Q01DX005 (ip), vehicle: saline 95 % of control | dose: 15.0 mg/kg/injection, schedule: Q01DX005 (ip), vehicle: saline 100 % of control

O=[N+]([O-])c1ccc(Cl)c(C(Nc2nncs2)Nc2nncs2)c1
inactive: dose: 60.0 mg/kg/injection, schedule: Q01DX005 (ip), vehicle: Klucel (hydroxypropylcellulose) (HPC) 91 % of control | dose: 120.0 mg/kg/injection, schedule: Q01DX005 (ip), vehicle: Klucel (hydroxypropylcellulose) (HPC) 104 % of control | dose: 240.0 mg/kg/injection, schedule: Q01DX005 (ip), vehicle: Klucel (hydroxypropylcellulose) (HPC) 119 % of control

O=C(N/N=C/C(O)C(O)C(O)C(O)C(=O)O)c1ccncc1 (stereo not given)
inactive: dose: 50.0 mg/kg/injection, schedule: Q01DX005 (ip), vehicle: saline 99 % of control | [8] 93 % of control | [9] 100 % of control

CN(C)c1ccc(C(=C2C=CC(=[N+](C)C)C=C2)c2cc(S(=O)(=O)O)cc3cc(S(=O)(=O)O)ccc23)cc1
inactive: [10] 103 % of control | [11] 107 % of control | [12] 100 % of control

Cc1nc2c([N+](=O)[O-])c(NCCCc3ccccc3)c([N+](=O)[O-])cc2[nH]1
inactive: dose: 50.0 mg/kg/injection, schedule: Q04DX003 (ip), vehicle: saline with Tween-80 94 % of control | dose: 100.0 mg/kg/injection, schedule: Q04DX003 (ip), vehicle: saline with Tween-80 100 % of control and 96 % of control

CC1(c2ccccc2)CCOCO1 (stereo not given)
inactive: [10] 106 % of control | [11] 98 % of control | [12] 104 % of control

O=C1C=CC(=CC=C2C=CN(CCCCCCCCCCCO)C=C2)C=C1
inactive: dose: 1.56 mg/kg/injection, schedule: Q01DX005 (ip), vehicle: saline with Tween-80 111 % of control | dose: 3.12 mg/kg/injection, schedule: Q01DX005 (ip), vehicle: saline with Tween-80 114 % of control and 118 % of control | dose: 6.25 mg/kg/injection, schedule: Q01DX005 (ip), vehicle: saline with Tween-80 121 % of control | dose: 7.5 mg/kg/injection, schedule: Q01DX005 (ip), vehicle: saline with Tween-80 109 % of control | dose: 12.5 mg/kg/injection, schedule: Q01DX005 (ip), vehicle: saline with Tween-80 118 % of control and 121 % of control | dose: 15.0 mg/kg/injection, schedule: Q01DX005 (ip), vehicle: saline with Tween-80 109 % of control and 111 % of control | dose: 30.0 mg/kg/injection, schedule: Q01DX005 (ip), vehicle: saline with Tween-80 118 % of control | [10] 100 % of control

NC1C(=O)NC(=O)NC1=O
inactive: dose: 25.0 mg/kg/injection, schedule: Q01DX005 (ip), vehicle: Klucel (hydroxypropylcellulose) (HPC) 96 % of control | dose: 50.0 mg/kg/injection, schedule: Q01DX005 (ip), vehicle: Klucel (hydroxypropylcellulose) (HPC) 96 % of control | dose: 100.0 mg/kg/injection, schedule: Q01DX005 (ip), vehicle: Klucel (hydroxypropylcellulose) (HPC) 98 % of control | dose: 200.0 mg/kg/injection, schedule: Q01DX005 (ip), vehicle: Klucel (hydroxypropylcellulose) (HPC) 100 % of control | dose: 400.0 mg/kg/injection, schedule: Q01DX005 (ip), vehicle: Klucel (hydroxypropylcellulose) (HPC) 105 % of control

CSc1ccccc1P(c1ccccc1)c1ccccc1SC
inactive: dose: 50.0 mg/kg/injection, schedule: Q01DX009 (ip), vehicle: Klucel (hydroxypropylcellulose) (HPC) 90 % of control | dose: 100.0 mg/kg/injection, schedule: Q01DX009 (ip), vehicle: Klucel (hydroxypropylcellulose) (HPC) 91 % of control | dose: 200.0 mg/kg/injection, schedule: Q01DX009 (ip), vehicle: Klucel (hydroxypropylcellulose) (HPC) 91 % of control

CC1CC(=O)OC2CC(C)(C)CC(=O)C12 (stereo not given)
inactive: dose: 100.0 mg/kg/injection, schedule: Q01DX009 (ip), vehicle: saline 100 % of control | dose: 200.0 mg/kg/injection, schedule: Q01DX009 (ip), vehicle: saline 100 % of control | dose: 400.0 mg/kg/injection, schedule: Q01DX009 (ip), vehicle: saline 109 % of control

NC(=O)C(=O)c1cc(Cl)c(Cl)c(Cl)c1Cl
inactive: [6] 105 % of control | [7] 99 % of control | [3] 96 % of control
